What was measured:
[1] = tested on: P. falciparum culture; set-up: method as in PMID 33046062; conditions: cited from earlier work
[2] = set-up: method as in PMID 33046062; conditions: cited from earlier work
[3] = target: T1, CYP450 2D6 (Homo sapiens, UniProt P10635); test: CYP450 inhibition in human liver microsomes, 2D6; format: in vitro ADME; conditions: 10 µM
T1 construct: 10 μM compound was incubated with human liver microsomes and selective marker substrates; from tissue; host or cells: human liver microsomes

[4] = target: CYP450 3A4 (Homo sapiens, UniProt P08684); test: CYP450 inhibition in human liver microsomes, 3A4
Description: DMPK evaluation. […] At 0, 5, 10, 20, 40, and 60 min time points, aliquots were removed and acetonitrile was added to quench the reactions and precipitate the proteins. […] After a 10 min incubation, the reaction was terminated and the per cent inhibition was determined.

[5] = target: T2, CYP1A2 (Homo sapiens, UniProt P05177); test: CYP450 inhibition in human liver microsomes, 1A2; format: in vitro ADME; conditions: 10 µM
T2 construct: 10 μM compound was incubated with human liver microsomes and selective marker substrates; from tissue; host or cells: human liver microsomes
T2 sequence (P05177 1-516): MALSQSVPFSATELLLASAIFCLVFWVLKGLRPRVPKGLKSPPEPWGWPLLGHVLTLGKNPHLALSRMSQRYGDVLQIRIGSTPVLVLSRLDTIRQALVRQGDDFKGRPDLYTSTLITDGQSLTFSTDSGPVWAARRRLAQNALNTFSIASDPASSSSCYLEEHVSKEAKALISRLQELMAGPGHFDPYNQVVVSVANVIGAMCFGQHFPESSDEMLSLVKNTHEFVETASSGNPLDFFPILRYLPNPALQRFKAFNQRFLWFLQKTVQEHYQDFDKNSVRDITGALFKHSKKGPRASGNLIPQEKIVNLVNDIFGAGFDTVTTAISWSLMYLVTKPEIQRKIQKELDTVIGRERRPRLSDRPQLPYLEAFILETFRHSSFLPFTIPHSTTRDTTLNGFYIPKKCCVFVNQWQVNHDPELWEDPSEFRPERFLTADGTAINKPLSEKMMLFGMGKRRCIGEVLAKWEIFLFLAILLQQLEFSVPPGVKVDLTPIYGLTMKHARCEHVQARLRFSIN

[6] = target: T3, CYP450 2C9 (Homo sapiens, UniProt P11712); test: CYP450 inhibition in human liver microsomes, 2C9; format: in vitro ADME; conditions: 10 µM
T3 construct: 10 μM compound was incubated with human liver microsomes and selective marker substrates; from tissue; host or cells: human liver microsomes

[7] = tested on: Jurkat; set-up: method as in PMID 33668008; conditions: Fig. 1A; cited from earlier work
[8] = target: T4, HDAC8 (Homo sapiens, UniProt Q9BY41); test: In vitro HDAC enzymatic assay, HDAC8; format: biochemical; conditions: mean ± SD
T4 construct: made in house
T4 sequence (Q9BY41 1-377): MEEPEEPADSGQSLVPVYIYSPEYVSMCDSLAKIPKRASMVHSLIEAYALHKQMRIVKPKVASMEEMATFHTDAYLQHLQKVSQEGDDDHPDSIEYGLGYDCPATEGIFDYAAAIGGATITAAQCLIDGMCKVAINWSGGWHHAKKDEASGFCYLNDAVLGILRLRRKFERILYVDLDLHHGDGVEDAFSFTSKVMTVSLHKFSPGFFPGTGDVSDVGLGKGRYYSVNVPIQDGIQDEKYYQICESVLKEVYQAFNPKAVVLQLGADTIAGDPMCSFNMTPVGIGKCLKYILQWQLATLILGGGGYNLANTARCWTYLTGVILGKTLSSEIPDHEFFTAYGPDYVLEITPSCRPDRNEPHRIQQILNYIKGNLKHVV
Description: (§1) In vitro HDAC enzymatic assays. Recombinant human HDAC1 and HDAC6 were purchased from ENZO Life Sciences AG (Lausen, CH) whereas HDAC8 was produced as described before. In vitro testing of the inhibitors in an enzymatic assay was carried out as described in previous publications[32],[33]. For HDAC1 a fluorogenic peptide derived from p53 (Ac-RHKK(Acetyl)-AMC) was used. For HDAC6, the substrate (Abz-SRGGK(thio-TFA)FFRR-NH2) was used as described before.

[9] = tested on: Namalwa; set-up: method as in PMID 33668008; conditions: Fig. 1A; cited from earlier work
[10] = target: T5, human HDAC1 (Homo sapiens, UniProt Q13547); test: In vitro HDAC enzymatic assay, HDAC1; format: biochemical; conditions: mean ± SD
T5 construct: purchased ENZO Life Sciences AG (Lausen, CH)
Description: as §1

[11] = target: T6, human HDAC6 (Homo sapiens, UniProt Q9UBN7); test: In vitro HDAC enzymatic assay, HDAC6; format: biochemical; conditions: for IC50: mean ± SD; for HDAC1/6 SI: ratio HsHDAC1 IC50/HsHDAC6 IC50
T6 construct: purchased ENZO Life Sciences AG (Lausen, CH)
T6 sequence (Q9UBN7 1-1215): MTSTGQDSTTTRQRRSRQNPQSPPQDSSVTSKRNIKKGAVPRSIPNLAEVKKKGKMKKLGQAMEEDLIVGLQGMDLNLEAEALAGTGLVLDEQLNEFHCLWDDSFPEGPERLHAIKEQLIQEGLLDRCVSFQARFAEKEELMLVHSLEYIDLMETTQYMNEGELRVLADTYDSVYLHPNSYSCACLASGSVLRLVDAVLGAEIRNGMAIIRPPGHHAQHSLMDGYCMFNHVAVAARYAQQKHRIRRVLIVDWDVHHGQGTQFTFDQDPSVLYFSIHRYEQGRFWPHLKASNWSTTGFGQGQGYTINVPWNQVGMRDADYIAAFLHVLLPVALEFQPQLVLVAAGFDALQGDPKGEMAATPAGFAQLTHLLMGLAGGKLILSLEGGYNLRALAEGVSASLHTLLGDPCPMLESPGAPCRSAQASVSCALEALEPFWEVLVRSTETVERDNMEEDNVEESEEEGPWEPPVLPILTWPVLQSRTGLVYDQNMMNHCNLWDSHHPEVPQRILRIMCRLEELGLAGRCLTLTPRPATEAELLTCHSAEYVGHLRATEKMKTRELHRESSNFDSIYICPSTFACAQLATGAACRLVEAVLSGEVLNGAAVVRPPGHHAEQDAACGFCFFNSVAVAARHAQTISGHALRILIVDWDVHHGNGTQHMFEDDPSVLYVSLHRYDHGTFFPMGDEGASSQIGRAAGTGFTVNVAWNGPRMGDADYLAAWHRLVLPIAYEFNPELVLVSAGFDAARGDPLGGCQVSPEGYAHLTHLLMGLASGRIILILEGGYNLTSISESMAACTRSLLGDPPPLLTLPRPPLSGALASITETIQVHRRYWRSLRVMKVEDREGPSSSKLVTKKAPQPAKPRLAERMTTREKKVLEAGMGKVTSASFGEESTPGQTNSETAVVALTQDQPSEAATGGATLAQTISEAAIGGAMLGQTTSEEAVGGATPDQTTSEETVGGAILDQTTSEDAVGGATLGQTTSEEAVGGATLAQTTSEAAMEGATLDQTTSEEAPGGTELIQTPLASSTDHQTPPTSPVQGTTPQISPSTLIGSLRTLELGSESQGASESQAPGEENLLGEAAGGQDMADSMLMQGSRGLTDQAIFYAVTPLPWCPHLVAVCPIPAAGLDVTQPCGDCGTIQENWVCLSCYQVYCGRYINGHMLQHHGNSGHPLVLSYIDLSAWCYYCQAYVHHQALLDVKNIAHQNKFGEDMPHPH
Description: as §1

[12] = tested on: HepG2 cells; test: Cytotoxicity in human HepG2 cells (WST-1); format: cell-based; conditions: Homo sapiens, HepG2; 48 h, WST-1; read-out: IC50 HepG2
Description: Cytotoxicity in human HepG2 cells.[47] […] Cytotoxic effects of compounds were assessed using the cell proliferation reagent WST-1 (Roche; CELLPRO-RO) in a 96-well plate-based screening assay. HepG2 cells were seeded at 10^4 cells/well (100 μL) in 96-well flat-bottom plates (Sarstedt) the night before the experiment to allow attachment of cells. The next day, two-fold serial dilutions of compounds were prepared in fresh medium in an extra plate, and the medium of cells was replaced by the medium containing the compound dilutions. Non-treated cells (max. proliferation), cells treated with the maximal solvent concentration (DMSO; solvent control), and medium with the maximal compound concentration (native absorbance) used as controls. […] Subsequently, 10 μL WST-1 was added to each well and plates were incubated for additional 4 h under standard conditions. WST-1 is a tetrazolium salt and is metabolised by the mitochondrial succinate-tetrazolium-reductase system of living cells and forms formazan, whose absorbance was measured at 450 nm. Absorbance at 630 nm was assessed to check for protein and precipitation background. Both measurements were acquired via the CLARIOstar (V5.20) and MARS software, manually scaled to 0–100%, and plotted with GraphPad Prism (version 9.5.2 for Windows, GraphPad Software, La Jolla California USA).

[13] = tested on: P. falciparum 3D7; test: Antiplasmodial SYBR Green I proliferation assay, P. falciparum 3D7; format: cell-based, Plasmodium falciparum; conditions: Plasmodium falciparum, 3D7, 96 h, 96 h; values in brackets 95% confidence intervals; read-out: IC50 Pf3D7
From the text: Antiplasmodial activity against P. falciparum 3D7 (A, C and E) and P. falciparum Dd2 (B, D, F). […] Curves were plotted using non-linear regression based on means from three independent experiments measured in triplicate. Error bars indicate standard deviation, whose values are provided in the respective table.
Plasmodium falciparum culture and antiplasmodial activity. […] Development, parasitaemia, and morphology of parasites were monitored by light microscopy of thin blood smears stained according to the Romanowsky method (Panótico Rápido staining kit; Laborclin, Pinhais, Paraná, Brazil). […] Fresh 0^+ blood was generously provided by “Hospital Novo Atibaia” (Atibaia, SP, Brazil), and approved by the ethics committee at ICB-USP. The antiplasmodial effect of all compounds was validated against P. falciparum 3D7 strain conducting SYBR Green I (Invitrogen) drug assays as previously reported[30],[46] as a modification of the original procedure. […] Parasite proliferation was measured by the DNA load via fluorescence, using 100 μL of a lysis buffer with SYBR Green I (0.02% v/v) and incubated for 1 h at room temperature in the dark. […] Focal and gain adjustment was performed using the non-treated controls (highest expected fluorescence signal). Data was acquired via the CLARIOstar (V5.20) and MARS software, manually scaled to 0–100%, and plotted using GraphPad Prism (v9.5.2 for Windows, GraphPad Software, La Jolla California USA, www.graphpad.com). Non-treated parasites, the highest solvent concentration on parasites, CQ on parasites, and the highest drug concentration in the medium were used as controls for maximal growth, solvent control, positive biological control, and native drug fluorescence, respectively.

T5 sequence (Q13547 whole entry): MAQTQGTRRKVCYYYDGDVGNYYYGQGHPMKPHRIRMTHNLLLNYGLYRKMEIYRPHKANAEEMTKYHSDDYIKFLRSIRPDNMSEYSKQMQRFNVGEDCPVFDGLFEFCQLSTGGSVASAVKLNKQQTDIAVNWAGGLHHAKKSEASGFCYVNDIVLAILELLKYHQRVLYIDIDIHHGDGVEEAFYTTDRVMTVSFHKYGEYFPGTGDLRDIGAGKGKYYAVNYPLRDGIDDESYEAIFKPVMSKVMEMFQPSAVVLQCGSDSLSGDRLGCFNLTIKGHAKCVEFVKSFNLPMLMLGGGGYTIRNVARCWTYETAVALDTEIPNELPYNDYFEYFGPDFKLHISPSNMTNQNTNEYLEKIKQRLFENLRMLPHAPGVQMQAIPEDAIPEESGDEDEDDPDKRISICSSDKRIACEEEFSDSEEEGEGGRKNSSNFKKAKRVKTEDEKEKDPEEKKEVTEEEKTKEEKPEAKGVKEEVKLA
Chain of CYP450 3A4 (P08684 whole entry): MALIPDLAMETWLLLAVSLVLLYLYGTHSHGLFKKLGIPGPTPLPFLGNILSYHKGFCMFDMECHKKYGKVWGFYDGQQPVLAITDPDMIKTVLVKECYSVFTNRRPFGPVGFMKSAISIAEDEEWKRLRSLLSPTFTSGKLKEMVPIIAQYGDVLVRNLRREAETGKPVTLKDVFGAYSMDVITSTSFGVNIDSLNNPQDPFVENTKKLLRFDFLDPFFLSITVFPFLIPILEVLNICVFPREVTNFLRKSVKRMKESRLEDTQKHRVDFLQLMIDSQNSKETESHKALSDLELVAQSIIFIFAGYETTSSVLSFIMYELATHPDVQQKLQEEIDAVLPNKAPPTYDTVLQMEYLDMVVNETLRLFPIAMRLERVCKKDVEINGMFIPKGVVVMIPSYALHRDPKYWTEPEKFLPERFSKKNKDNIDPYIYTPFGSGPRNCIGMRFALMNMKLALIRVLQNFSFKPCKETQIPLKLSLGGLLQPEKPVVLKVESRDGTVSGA
T1 sequence (P10635 whole entry): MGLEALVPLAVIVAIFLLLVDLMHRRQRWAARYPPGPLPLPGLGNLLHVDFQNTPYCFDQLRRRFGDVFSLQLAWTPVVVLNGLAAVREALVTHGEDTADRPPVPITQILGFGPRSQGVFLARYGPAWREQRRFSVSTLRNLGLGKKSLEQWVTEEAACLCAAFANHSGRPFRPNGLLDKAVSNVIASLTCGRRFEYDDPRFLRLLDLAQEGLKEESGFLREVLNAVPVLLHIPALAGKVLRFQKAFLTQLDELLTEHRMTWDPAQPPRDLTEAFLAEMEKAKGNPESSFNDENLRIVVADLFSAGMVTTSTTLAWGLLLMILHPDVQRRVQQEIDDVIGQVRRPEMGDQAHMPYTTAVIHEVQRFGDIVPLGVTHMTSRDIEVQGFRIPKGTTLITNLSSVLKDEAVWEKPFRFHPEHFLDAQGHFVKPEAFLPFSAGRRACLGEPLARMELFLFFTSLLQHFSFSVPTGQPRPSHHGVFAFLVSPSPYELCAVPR
T3 sequence (P11712 whole entry): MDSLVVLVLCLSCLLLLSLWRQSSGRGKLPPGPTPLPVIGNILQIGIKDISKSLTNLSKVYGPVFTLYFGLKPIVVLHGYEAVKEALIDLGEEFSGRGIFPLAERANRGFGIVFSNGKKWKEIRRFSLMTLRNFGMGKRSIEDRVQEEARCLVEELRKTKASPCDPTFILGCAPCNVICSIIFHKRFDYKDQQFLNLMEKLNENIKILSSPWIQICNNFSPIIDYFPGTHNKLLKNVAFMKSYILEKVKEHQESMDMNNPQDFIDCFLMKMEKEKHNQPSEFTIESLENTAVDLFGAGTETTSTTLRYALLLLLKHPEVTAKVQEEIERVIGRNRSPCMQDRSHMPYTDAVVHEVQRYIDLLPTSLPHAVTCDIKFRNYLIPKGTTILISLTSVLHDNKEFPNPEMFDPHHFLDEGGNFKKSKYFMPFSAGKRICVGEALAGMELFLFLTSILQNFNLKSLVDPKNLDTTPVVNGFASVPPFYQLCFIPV

Cl.O=C(NO)c1ccc(Cn2cc(-c3ccc(CN4CCCC4)cc3)nn2)cc1 [FNDR-20123]
IC50 against P. falciparum culture [1]: low nanomolar range | Half-life t1/2 [2]: 2 to 9.21 h

Nc1ccc(S(=O)(=O)Nc2ccnn2-c2ccccc2)cc1 [Sulfaphenazole, reference compound]
CYP450% inhibition @ 10 µM 2D6 [3]: * (Inhibition < 10%) | CYP450% inhibition @ 10 µM 3A4 [4]: * (Inhibition < 10%) | CYP450% inhibition @ 10 µM 1A2 [5]: * (Inhibition < 10%) | CYP450% inhibition @ 10 µM 2C9 [6]: 94%

O=C(CCc1ccc(NC(=O)Nc2ccccc2)cc1)NO [Compound 7a, N-hydroxy-3-(4-(3-phenylureido)phenyl)propanamide]
IC50 [7]: 1590 nM | IC50 [8]: 462 ± 27.6 nM | melting point: 304 °C (dec.) | IC50 [9]: 780 nM | IC50 [10]: 4890 ± 210 nM | IC50 [11]: 152 ± 11.6 nM | HDAC1/6 SI [11]: 32 | IC50 [12]: > 50000 nM | IC50 [13]: 4570 nM

O=C(/C=C/c1ccc(NC(=O)Nc2ccccc2)cc1)NO [Compound 6a, (E)-N-hydroxy-3-(4-(3-phenylureido)phenyl)acrylamide]
IC50 [7]: 160 nM | IC50 [8]: 95.1 ± 4.6 nM | melting point: 202 to 204 °C | IC50 [9]: 300 nM | IC50 [10]: 1350 ± 64.2 nM | IC50 [11]: 12.4 ± 0.7 nM | HDAC1/6 SI [11]: 109 | IC50 [12]: 22900 nM | IC50 [13]: 1720 nM

From publication PMC10687260, “1,3-Diphenylureido hydroxamate as a promising scaffold for generation of potent antimalarial histone deacetylase inhibitors” (Scientific Reports, 2023)
